Test results published in ChEMBL document CHEMBL5723587, “Data for DCP probe BI-113823” (2024).

How the values were obtained:
[1] = target: Beta-1 adrenergic receptor (Homo sapiens) (UniProt P08588); assay: beta 1 Eurofins-Cerep binding assay; set-up: ligand concentration 0.3 nM; conditions: Compound concentration 10.0 uM
[2] = target: Prostaglandin G/H synthase 1 (Homo sapiens) (UniProt P23219); assay: Inhibitor of COX-1 in the Eurofins Cerep SafetyScreen44 (BI) by Fluorimetry (Cerep_4173); conditions: Compound concentration 10.0 uM
[3] = target: 5-hydroxytryptamine receptor 1A (Homo sapiens) (UniProt P08908); assay: 5-HT1A Eurofins-Cerep binding assay; set-up: ligand concentration 0.5 nM; conditions: Compound concentration 10.0 uM
[4] = target: 5-hydroxytryptamine receptor 2A (Homo sapiens) (UniProt P28223); assay: Agonist activity in the Eurofins Cerep SafetyScreen44 (BI) against 5HT2AH_AGON by Scintillation counting (Cerep_471); conditions: Compound concentration 10.0 uM
[5] = target: D(1A) dopamine receptor (Homo sapiens) (UniProt P21728); assay: D1 Eurofins-Cerep binding assay; set-up: ligand concentration 0.3 nM; conditions: Compound concentration 10.0 uM
[6] = target: Cannabinoid receptor 2 (Homo sapiens) (UniProt P34972); assay: Activity against CB2/PERIPH/H in the Eurofins Cerep SafetyScreen44 (BI) by Radioactive Assay (Cerep_37); conditions: Compound concentration 10.0 uM
[7] = target: Delta-type opioid receptor (Homo sapiens) (UniProt P41143); assay: delta (DOP) Eurofins-Cerep binding assay; set-up: ligand concentration 0.5 nM; conditions: Compound concentration 10.0 uM
Rattus norvegicus [8] = species: Rattus norvegicus; assay: Activity against BZD/CENTR/R in the Eurofins Cerep SafetyScreen44 (BI) by Radioactive Assay (Cerep_28); assay type: protein-complex assay; conditions: Compound concentration 10.0 uM
B1 bradykinin receptor [9] = target: T1, B1 bradykinin receptor (Homo sapiens, UniProt P46663); assay: Radioligand binding assay (displacement of kallidin, hBDKRB1 ) at 10 µM ( Non-specific binding is estimated in the presence of 10 µM Des-Arg9- (Leu8)-Bradykinin. Membranes are filtered and washed, the filters are then counted to determine [3H]Kallidin[des-Arg10, Leu9] specifically bound.); set-up: compound concentration 10 uM
T1 sequence (P46663 whole entry): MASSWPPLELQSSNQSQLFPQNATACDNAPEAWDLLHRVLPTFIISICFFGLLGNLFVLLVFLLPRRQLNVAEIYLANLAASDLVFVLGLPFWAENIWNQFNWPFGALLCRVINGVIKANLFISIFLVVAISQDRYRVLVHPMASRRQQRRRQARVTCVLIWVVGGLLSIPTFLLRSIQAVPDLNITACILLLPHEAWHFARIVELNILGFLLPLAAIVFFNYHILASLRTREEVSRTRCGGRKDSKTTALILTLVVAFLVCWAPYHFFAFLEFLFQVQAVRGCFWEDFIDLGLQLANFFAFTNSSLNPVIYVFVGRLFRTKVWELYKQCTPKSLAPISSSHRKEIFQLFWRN

[10] = target: Adenosine receptor A2a (Homo sapiens) (UniProt P29274); assay: A2A Eurofins-Cerep binding assay; set-up: ligand concentration 6 nM; conditions: Compound concentration 10.0 uM
[11] = target: Histamine H2 receptor (Homo sapiens) (UniProt P25021); assay: H2 Eurofins-Cerep binding assay; set-up: ligand concentration 0.075 nM; conditions: Compound concentration 10.0 uM
[12] = target: Alpha-2A adrenergic receptor (Homo sapiens) (UniProt P08913); assay: Inhibitor of ALPHA2A/HU in the Eurofins Cerep SafetyScreen44 (BI) by Radioactive Assay (Cerep_13); conditions: Compound concentration 10.0 uM
Homo sapiens = species: Homo sapiens; assay: Agonist activity in the Eurofins Cerep SafetyScreen44 (BI) against N_NEURO_A4B2 by Radioligand Binding (Cerep_3029); assay type: protein-complex assay; conditions: Compound concentration 10.0 uM
[13] = target: 5-hydroxytryptamine receptor 2B (Homo sapiens) (UniProt P41595); assay: 5-HT2B Eurofins-Cerep binding assay; conditions: Compound concentration 10.0 uM
[14] = target: Angiotensin-converting enzyme (Homo sapiens) (UniProt P12821); assay: Activity against ACE(HU_AMTCH400) in the Eurofins Cerep SafetyScreen44 (BI) by Photometry (Cerep_3441); conditions: Compound concentration 10.0 uM
[15] = target: Alpha-1A adrenergic receptor (Homo sapiens) (UniProt P35348); assay: Agonist activity in the Eurofins Cerep SafetyScreen44 (BI) against ALPHA1AH_ANTAG by Scintillation counting (Cerep_2338); conditions: Compound concentration 10.0 uM
[16] = target: L-type calcium channel (dihydropyridine site), Cav1.2 alpha-1C (Rattus norvegicus, UniProt P22002); assay: Inhibitor of CA+/DHPSI/R in the Eurofins Cerep SafetyScreen44 (BI) by Radioactive Assay (Cerep_161); assay type: protein assay; set-up: scale not given: the % may be the effect or the level left; conditions: rat brain, probe [3H](+)PN200-110, compound concentration 10 uM, read-out: % Ctrl
[17] = target: Prostaglandin G/H synthase 2 (Homo sapiens) (UniProt P35354); assay: Inhibitor of COX-2 in the Eurofins Cerep SafetyScreen44 (BI) by Fluorimetry (Cerep_4186); conditions: Compound concentration 10.0 uM
[18] = target: Vasopressin V1a receptor (Homo sapiens) (UniProt P37288); assay: V1a Eurofins-Cerep binding assay; set-up: ligand concentration 0.3 nM; conditions: Compound concentration 10.0 uM
[19] = target: Endothelin-1 receptor (Homo sapiens) (UniProt P25101); assay: ETA Eurofins-Cerep binding assay; set-up: ligand concentration 0.03 nM; conditions: Compound concentration 10.0 uM
[20] = target: Cholecystokinin receptor type A (Homo sapiens) (UniProt P32238); assay: CCK1 (CCKA) Eurofins-Cerep binding assay; set-up: ligand concentration 0.08 nM; conditions: Compound concentration 10.0 uM
[21] = target: Beta-2 adrenergic receptor (Homo sapiens) (UniProt P07550); assay: beta 2 Eurofins-Cerep binding assay; conditions: Compound concentration 10.0 uM
[22] = target: Sodium-dependent dopamine transporter (Homo sapiens) (UniProt Q01959); assay: dopamine transporter Eurofins-Cerep binding assay; conditions: Compound concentration 10.0 uM
[23] = target: Kappa-type opioid receptor (Homo sapiens) (UniProt P41145); assay: kappa (KOP) Eurofins-Cerep binding assay; conditions: Compound concentration 10.0 uM
hERG (KCNH2) = hERG (KCNH2) (Homo sapiens, UniProt Q12809); assay: Inhibitor of HERG_DOFETILIDE in the Eurofins Cerep SafetyScreen44 (BI) by Scintillation counting (Cerep_4094); set-up: scale not given: the % may be the effect or the level left; conditions: probe [3H]dofetilide, compound concentration 10 uM, read-out: % Ctrl
[24] = target: Muscarinic acetylcholine receptor M1 (Homo sapiens) (UniProt P11229); assay: M1 Eurofins-Cerep binding assay; set-up: ligand concentration 2 nM; conditions: Compound concentration 10.0 uM
[25] = target: 5-hydroxytryptamine receptor 1B (Homo sapiens) (UniProt P28222); assay: 5-HT1B Eurofins-Cerep binding assay; set-up: ligand concentration 1 nM; conditions: Compound concentration 10.0 uM
[26] = target: 3',5'-cyclic-AMP phosphodiesterase 4D (Homo sapiens) (UniProt Q08499); assay: Inhibitor of PDE4D2 in the Eurofins Cerep SafetyScreen44 (BI) by Scintillation counting (Cerep_4077); conditions: Compound concentration 10.0 uM
Rattus norvegicus [27] = species: Rattus norvegicus; assay: KV channel Eurofins-Cerep binding assay; set-up: ligand concentration 0.01 nM; conditions: Compound concentration 10.0 uM
[28] = target: cGMP-inhibited 3',5'-cyclic phosphodiesterase 3A (Homo sapiens) (UniProt Q14432); assay: Inhibitor of PDE3A in the Eurofins Cerep SafetyScreen44 (BI) by HTRF-homogeneous time resolved fluoresce (Cerep_4072); conditions: Compound concentration 10.0 uM
[29] = target: Glucocorticoid receptor (Homo sapiens) (UniProt P04150); assay: GR Eurofins-Cerep binding assay; conditions: Compound concentration 10.0 uM
[30] = target: Androgen receptor (Homo sapiens) (UniProt P10275); conditions: Compound concentration 10.0 uM
Description: Activity against ANDROGEN/H in the Eurofins Cerep SafetyScreen44 (BI) by Radioactive Assay (Cerep_933)

[31] = target: Sodium-dependent serotonin transporter (Homo sapiens) (UniProt P31645); assay: 5-HT transporter Eurofins-Cerep binding assay; set-up: ligand concentration 2 nM; conditions: Compound concentration 10.0 uM
[32] = target: Muscarinic acetylcholine receptor M2 (Homo sapiens) (UniProt P08172); assay: M2 Eurofins-Cerep binding assay; set-up: ligand concentration 2 nM; conditions: Compound concentration 10.0 uM
[33] = target: Glutamate NMDA receptor (Rattus norvegicus) (UniProt P35439+Q00959+Q00960+Q00961+Q62645+Q8VHN2+Q9R1M7); assay: Inhibitor of NMDA/R in the Eurofins Cerep SafetyScreen44 (BI) by Radioactive Assay (Cerep_66); assay type: protein-complex assay; conditions: Compound concentration 10.0 uM
[34] = target: MAO-A (amine oxidase [flavin-containing] A) (Homo sapiens, UniProt P21397); assay: Agonist activity in the Eurofins Cerep SafetyScreen44 (BI) against MAO-A_ANTAG by Scintillation counting (Cerep_443); set-up: scale not given: the % may be the effect or the level left; conditions: rat; compound concentration 10 uM; target entry is the homologue from another species; read-out: % Ctrl
[35] = target: 5-hydroxytryptamine receptor 3A (Homo sapiens) (UniProt P46098); assay: 5-HT3 Eurofins-Cerep binding assay; set-up: ligand concentration 0.5 nM; conditions: Compound concentration 10.0 uM
[36] = target: Sodium-dependent noradrenaline transporter (Homo sapiens) (UniProt P23975); assay: norepinephrine transporter Eurofins-Cerep binding assay; set-up: ligand concentration 1 nM; conditions: Compound concentration 10.0 uM
[37] = target: Mu-type opioid receptor (Homo sapiens) (UniProt P35372); assay: mu (MOP) Eurofins-Cerep binding assay; set-up: ligand concentration 0.5 nM; conditions: Compound concentration 10.0 uM
[38] = target: Tyrosine-protein kinase Lck (Homo sapiens) (UniProt P06239); assay: Inhibitor of LCK_CE in the Eurofins Cerep SafetyScreen44 (BI) by lanthanide chelation excitation (Cerep_2906); conditions: Compound concentration 10.0 uM
[39] = target: Histamine H1 receptor (Homo sapiens) (UniProt P35367); assay: H1 Eurofins-Cerep binding assay; set-up: ligand concentration 1 nM; conditions: Compound concentration 10.0 uM
B1 bradykinin receptor [40] = target: T1, B1 bradykinin receptor; assay: Measurement of intracellular calcium in HEK-cells expressing hBDKRB1 at up to 1 µM ( The compound antagonizes the effects of the specific B1 agonist [Lys-des-Arg9 ]-Bradykinin (10 nM) in a concentration-dependent manner.); assay type: functional, cell-based; set-up: compound concentration < 1 uM
[41] = target: D(2) dopamine receptor (Homo sapiens) (UniProt P14416); assay: Agonist activity in the Eurofins Cerep SafetyScreen44 (BI) against D2SH_AGON by Scintillation counting (Cerep_1322); conditions: Compound concentration 10.0 uM
[42] = target: Cannabinoid receptor 1 (Homo sapiens) (UniProt P21554); assay: CB1 Eurofins-Cerep binding assay; conditions: Compound concentration 10.0 uM
[43] = target: Muscarinic acetylcholine receptor M3 (Homo sapiens) (UniProt P20309); assay: M3 Eurofins-Cerep binding assay; set-up: ligand concentration 0.2 nM; conditions: Compound concentration 10.0 uM

L-type calcium channel (dihydropyridine site), Cav1.2 alpha-1C, sequence (P22002 whole entry): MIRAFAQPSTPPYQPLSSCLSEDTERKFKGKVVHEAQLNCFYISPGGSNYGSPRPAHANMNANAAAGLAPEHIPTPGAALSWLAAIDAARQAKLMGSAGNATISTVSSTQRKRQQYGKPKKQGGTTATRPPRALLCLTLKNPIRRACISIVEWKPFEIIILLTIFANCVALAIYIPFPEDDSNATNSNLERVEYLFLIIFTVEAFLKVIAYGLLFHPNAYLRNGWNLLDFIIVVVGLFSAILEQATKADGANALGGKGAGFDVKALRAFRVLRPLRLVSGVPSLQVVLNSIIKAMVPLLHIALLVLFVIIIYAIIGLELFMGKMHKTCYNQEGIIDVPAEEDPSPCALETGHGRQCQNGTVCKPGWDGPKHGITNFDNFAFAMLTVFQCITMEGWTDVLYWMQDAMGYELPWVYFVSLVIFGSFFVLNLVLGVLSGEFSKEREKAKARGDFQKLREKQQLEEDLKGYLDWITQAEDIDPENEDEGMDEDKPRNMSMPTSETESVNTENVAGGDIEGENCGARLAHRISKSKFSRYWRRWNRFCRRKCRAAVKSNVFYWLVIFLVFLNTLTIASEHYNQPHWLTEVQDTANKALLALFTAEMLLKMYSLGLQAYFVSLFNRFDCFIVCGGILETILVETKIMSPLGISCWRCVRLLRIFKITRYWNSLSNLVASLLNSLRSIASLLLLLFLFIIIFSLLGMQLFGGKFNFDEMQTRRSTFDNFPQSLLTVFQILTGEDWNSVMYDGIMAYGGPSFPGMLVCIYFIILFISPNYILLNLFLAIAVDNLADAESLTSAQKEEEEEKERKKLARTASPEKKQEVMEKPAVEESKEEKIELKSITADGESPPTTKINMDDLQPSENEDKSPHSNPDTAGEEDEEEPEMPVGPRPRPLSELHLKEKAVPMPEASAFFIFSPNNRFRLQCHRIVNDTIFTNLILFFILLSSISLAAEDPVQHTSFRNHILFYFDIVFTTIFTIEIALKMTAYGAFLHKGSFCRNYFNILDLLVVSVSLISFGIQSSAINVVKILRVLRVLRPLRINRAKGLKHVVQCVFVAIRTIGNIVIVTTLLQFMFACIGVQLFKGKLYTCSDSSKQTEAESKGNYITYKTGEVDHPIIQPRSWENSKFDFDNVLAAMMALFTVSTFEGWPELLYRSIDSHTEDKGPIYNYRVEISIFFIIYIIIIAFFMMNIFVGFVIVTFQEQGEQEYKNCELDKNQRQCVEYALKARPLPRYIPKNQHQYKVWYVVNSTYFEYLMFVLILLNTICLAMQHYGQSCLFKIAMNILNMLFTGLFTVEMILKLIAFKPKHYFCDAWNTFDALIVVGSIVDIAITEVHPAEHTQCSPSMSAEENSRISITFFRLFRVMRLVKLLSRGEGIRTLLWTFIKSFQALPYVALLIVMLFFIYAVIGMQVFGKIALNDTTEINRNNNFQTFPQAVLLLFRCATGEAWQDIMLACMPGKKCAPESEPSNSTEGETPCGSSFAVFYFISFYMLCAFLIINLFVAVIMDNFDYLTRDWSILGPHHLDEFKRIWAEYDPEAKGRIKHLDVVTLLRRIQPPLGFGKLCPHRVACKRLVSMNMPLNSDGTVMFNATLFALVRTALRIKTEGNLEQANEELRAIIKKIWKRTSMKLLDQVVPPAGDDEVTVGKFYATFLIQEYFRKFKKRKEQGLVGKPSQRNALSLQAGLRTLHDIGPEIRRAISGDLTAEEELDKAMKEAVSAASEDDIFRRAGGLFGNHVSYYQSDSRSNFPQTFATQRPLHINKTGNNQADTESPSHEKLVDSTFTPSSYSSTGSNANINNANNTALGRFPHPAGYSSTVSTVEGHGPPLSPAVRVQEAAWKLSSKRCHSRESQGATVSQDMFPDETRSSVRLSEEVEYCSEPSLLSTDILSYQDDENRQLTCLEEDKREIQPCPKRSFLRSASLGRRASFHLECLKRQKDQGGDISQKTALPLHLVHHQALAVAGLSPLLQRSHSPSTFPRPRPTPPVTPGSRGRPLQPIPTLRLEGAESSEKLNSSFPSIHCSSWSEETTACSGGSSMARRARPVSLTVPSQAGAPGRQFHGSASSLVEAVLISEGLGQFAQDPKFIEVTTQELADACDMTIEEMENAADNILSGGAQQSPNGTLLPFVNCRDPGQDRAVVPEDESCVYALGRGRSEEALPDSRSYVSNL
5-hydroxytryptamine receptor 1B (Homo sapiens), sequence (P28222 whole entry): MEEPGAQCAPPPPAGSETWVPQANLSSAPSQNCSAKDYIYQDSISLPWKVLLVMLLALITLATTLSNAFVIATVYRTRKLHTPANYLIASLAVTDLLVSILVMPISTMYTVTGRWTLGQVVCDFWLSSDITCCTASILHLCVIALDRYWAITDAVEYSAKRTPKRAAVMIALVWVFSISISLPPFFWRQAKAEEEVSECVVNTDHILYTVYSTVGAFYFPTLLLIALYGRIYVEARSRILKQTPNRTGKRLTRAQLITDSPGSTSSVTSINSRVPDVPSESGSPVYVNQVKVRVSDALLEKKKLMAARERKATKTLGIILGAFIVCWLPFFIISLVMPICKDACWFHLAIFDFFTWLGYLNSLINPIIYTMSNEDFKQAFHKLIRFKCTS
3',5'-cyclic-AMP phosphodiesterase 4D (Homo sapiens), sequence (Q08499 whole entry): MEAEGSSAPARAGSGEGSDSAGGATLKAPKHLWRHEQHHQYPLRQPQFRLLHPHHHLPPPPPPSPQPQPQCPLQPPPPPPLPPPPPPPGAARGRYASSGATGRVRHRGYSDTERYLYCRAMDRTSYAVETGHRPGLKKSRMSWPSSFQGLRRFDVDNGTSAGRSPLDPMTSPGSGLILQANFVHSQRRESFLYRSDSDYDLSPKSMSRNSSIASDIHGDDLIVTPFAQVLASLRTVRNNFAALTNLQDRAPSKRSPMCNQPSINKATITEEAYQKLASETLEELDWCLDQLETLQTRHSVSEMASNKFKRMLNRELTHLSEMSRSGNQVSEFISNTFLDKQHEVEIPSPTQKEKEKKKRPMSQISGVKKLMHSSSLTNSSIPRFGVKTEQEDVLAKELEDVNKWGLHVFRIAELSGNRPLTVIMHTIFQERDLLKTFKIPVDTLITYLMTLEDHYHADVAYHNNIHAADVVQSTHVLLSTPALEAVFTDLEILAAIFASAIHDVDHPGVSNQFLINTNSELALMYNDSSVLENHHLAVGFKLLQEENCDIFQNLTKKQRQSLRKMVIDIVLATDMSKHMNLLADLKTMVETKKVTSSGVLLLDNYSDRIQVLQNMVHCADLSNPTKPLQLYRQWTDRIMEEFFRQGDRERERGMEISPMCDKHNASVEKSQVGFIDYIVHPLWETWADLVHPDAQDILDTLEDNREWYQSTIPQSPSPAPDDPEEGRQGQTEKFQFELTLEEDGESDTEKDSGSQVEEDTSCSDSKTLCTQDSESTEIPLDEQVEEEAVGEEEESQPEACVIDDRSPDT
Muscarinic acetylcholine receptor M1 (Homo sapiens), sequence (P11229 whole entry): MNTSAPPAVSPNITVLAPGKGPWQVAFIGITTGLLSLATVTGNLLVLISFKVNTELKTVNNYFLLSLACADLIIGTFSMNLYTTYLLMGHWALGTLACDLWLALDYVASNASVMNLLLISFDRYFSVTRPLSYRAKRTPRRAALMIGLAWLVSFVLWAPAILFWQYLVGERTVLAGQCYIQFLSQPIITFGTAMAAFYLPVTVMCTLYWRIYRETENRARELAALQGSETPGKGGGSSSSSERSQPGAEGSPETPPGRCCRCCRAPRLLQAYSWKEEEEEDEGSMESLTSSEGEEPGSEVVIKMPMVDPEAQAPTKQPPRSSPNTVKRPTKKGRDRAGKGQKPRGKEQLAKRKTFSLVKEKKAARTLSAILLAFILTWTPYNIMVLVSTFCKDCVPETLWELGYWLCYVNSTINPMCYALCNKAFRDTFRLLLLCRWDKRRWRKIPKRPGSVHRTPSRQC
Kappa-type opioid receptor (Homo sapiens), sequence (P41145 whole entry): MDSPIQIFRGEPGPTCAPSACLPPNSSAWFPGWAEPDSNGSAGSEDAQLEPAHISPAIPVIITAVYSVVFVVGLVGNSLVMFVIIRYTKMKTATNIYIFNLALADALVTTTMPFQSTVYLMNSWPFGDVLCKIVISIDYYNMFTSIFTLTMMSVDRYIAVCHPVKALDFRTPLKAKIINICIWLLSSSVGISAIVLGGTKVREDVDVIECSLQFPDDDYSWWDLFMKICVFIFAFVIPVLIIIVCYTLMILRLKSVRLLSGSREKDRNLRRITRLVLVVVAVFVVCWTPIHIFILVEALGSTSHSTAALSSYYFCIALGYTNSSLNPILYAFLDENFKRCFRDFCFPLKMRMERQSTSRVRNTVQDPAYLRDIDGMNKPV
5-hydroxytryptamine receptor 1A (Homo sapiens), sequence (P08908 whole entry): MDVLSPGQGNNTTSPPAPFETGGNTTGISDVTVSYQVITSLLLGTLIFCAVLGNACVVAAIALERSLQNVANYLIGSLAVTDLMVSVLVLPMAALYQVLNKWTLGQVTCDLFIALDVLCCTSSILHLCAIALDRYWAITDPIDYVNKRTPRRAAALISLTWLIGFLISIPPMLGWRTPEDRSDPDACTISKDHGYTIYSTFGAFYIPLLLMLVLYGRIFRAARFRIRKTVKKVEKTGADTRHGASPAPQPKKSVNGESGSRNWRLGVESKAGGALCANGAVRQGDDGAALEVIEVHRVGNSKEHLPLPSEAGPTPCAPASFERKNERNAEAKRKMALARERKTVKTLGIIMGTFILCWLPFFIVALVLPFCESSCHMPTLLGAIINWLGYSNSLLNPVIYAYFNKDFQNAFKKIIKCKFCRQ
Beta-2 adrenergic receptor (Homo sapiens), sequence (P07550 whole entry, looked up): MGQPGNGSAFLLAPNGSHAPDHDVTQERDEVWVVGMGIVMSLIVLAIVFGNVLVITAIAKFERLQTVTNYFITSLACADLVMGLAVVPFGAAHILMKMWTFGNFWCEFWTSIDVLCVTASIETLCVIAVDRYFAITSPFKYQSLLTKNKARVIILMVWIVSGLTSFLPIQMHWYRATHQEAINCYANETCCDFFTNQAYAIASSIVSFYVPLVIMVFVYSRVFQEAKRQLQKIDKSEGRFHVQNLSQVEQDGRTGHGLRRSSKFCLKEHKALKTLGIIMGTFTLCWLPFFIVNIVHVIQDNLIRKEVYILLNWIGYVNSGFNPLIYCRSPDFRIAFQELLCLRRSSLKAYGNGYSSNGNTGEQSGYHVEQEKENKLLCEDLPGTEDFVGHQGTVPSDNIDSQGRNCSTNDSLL

residual activity [1]: 97%
residual activity [3]: 99%
residual activity [5]: 94%
residual activity [7]: 87%
Ki (B1 bradykinin receptor [9]): 0.431 µM (not active)
residual activity [10]: 124%
residual activity [11]: 113%
residual activity [13]: 81%
residual activity [18]: 87%
residual activity [19]: 109%
residual activity [20]: 85%
residual activity [21]: 101%
residual activity [22]: 98%
residual activity [23]: 42%
residual activity [24]: 89%
residual activity [25]: 92%
residual activity (Rattus norvegicus [27]): 98%
residual activity [29]: 102%
residual activity [30]: 90%
residual activity [31]: 103%
residual activity [32]: 67%
residual activity [35]: 93%
residual activity [36]: 93%
residual activity [37]: 96%
residual activity [39]: 104%
IC50 (B1 bradykinin receptor [40]): 0.699 µM (not active)
residual activity [42]: 137%
residual activity [43]: 92%
SMILES: COc1cc(C)c(S(=O)(=O)N(C)CCC(=O)N[C@H]2CC[C@@H](N3CCC4CN(C)CC4C3)CC2)c(C)c1 (stereo not given in full)
residual activity [2]: 85%
residual activity [4]: 108%
residual activity [6]: 106%
residual activity (Rattus norvegicus [8]): 105%
residual activity [12]: 90%
residual activity (Homo sapiens): 98%
residual activity [14]: 97%
residual activity [15]: 91%
activity at 10 µM [16]: 120% (not active)
residual activity [17]: 98%
activity at 10 µM (hERG (KCNH2)): 63% (not active)
residual activity [26]: 104%
residual activity [28]: 105%
residual activity [33]: 112%
activity at 10 µM [34]: 106% (not active)
residual activity [38]: 94%
residual activity [41]: 97%
